The source of these data is PMC8386742, “Discovery of N-aryl sulphonamide-quinazoline derivatives as anti-gastric cancer agents in vitro and in vivo via activating the Hippo signalling pathway” (Journal of Enzyme Inhibition and Medicinal Chemistry, 2021).

Each structure is given as a SMILES string.

Data set [1] has as its system HUEVC cells. Nature of the data set: MTT antiproliferative assay, HUEVC normal cells. The format is cell-based. Particulars: exposure for 48 h, non-cancer cell line. The method, then: (§1) Furthermore, MGC-803 cells were more sensitive to the compounds than HCT-116, PC-3 cells MCF-7 cells. Moreover, we chose two other common gastric cancer cell lines (HGC-27 and SGC-7901) and another two normal cells GES-1 and HUEVC cells to examine for the inhibitory activity of compound 9i.
(§2) Cell lines used were cultured in humidified incubator in a humidified atmosphere of 5% CO2 and 95% air. The RPMI-1640 medium was supplemented with 10% foetal bovine serum, penicillin (100 U/ml) and streptomycin (0.1 mg/ml).
(§3) Cell lines were seeded into 96-well plates and incubated for 24 h. Then cells were treated with different concentrations of compounds. And after another 48 h, MTT reagent (20 μL per well) was added to each well and then incubated at 37 °C for 4 h. After the suspension was discarded, formazan was then dissolved with DMSO. Absorbencies of formazan solution were measured at 490 nm. The IC50 values of tested compounds were calculated by SPSS version 17.0.
On the technique in general: Formazan colour is commonly taken as a measure of viable cells.

For data set [2], the system named is SGC-7901 cells. The data set can be described thus: MTT antiproliferative assay, SGC-7901 gastric cancer cells. The following applies: Homo sapiens, SGC-7901, exposure for 48 h. The format is cell-based. How it is done: as §1, §2, §3
Data set [3] has as its system HCT-116 cells. Nature of the data set: MTT antiproliferative assay, HCT-116 cells. The format is cell-based, human. The following applies: exposure for 48 h. In short, it runs like this: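 Cells were grown in RPMI-1640 with 10% FBS and seeded for 24 h before treatment. They were exposed to graded compound concentrations for 48 h, then MTT was added for 4 h at 37 °C. Formazan was dissolved in DMSO and absorbance read at 490 nm to derive IC50 values.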

The nature of data set [4]: In vivo toxicity in MGC-803 bearing mice (body weight, blood biochemistry, H&E). Also noted: species or system nude mice. The method, then: The bodyweight of mice was recorded during the treatment every 3 days. […] Blood samples and organs were collected after mice were executed.
(§4) A human gastric cancer subcutaneous transplantation tumour model was established with MGC-803 cells. After the tumour volume reaches 100 mm3 the MGC-803 bearing mice were randomised into 3 groups and intraperitoneal injection with normal saline or drugs continuously for 21 days. Tumour volume was measured every 3 days (Length × Width2/2). Mice were executed after treatment. 500 μL blood samples was collected each mouse, samples were then centrifuged at 2000 g for 10 min for biochemistry analysis. Tumour and organs tissues were harvested for H&E staining or immunochemistry detection. The experiments in the study were performed comply with the protocols approved by the Institutional Animal Care and Use Committee, Zhengzhou University.

Data set [5] deals with MGC-803 xenograft tumour. The data set can be described thus: MGC-803 xenograft model. The format is in vivo, nude mice. How it is done: When the tumour volume reached 100 mm^3, vehicle control, compound 9i, and 5-FU were administered by daily intraperitoneal injection for 21 consecutive days. During the treatment, tumour volume and body weight of nude mice were measured every 3 days from the beginning of treatment. […] Tumour weight was measured after the execution of animals, the inhibition rate of the compound 9i treated group was over 60% than the vehicle group (Figures 7(B,C)). Tunnel staining was used for cell apoptosis detection, as shown in Figure 7(D), compound 9i increased the level of cell apoptosis. […] Next, the levels of YAP, Bcl-2, c-Myc, Ki67, and cleaved PARP in tissues were detected using immunochemistry to validate the results. […] The data indicated compound 9i inhibited YAP to inhibit the tumour in vivo.
as §4

Data set [6] concerns Hippo signalling pathway. The data set can be described thus: Western blotting / mRNA of Hippo related proteins in MGC-803 and SGC-7901 cells. The format is cell-based. An excerpt:
Phosphorylation of YAP is the process of YAP inactivation. YAP protein is inactivated (phosphorylated) by Hippo cascade pathway in cells. […] We also investigated the influence of 9i on upstream signal-regulated molecules of the Hippo pathway. […] Transcription factor TEAD interacts with YAP to express downstream substrates, the level of TEAD was not changed by compound 9i (Figures 4(A,B)). Yap entering the nucleus is a key step of substrates expression. With the treatment of compound 9i, the level of YAP inside nuclear was decreased (Figure 4(C)).
Figure 4. Influence of 9i on the Hippo signalling pathway in two gastric cancer cells. Density ratios relative to its loading control protein (β-Actin/LaminB1/GAPDH) were shown on the top of each Western blotting band. (A) The levels of Hippo related proteins, cells were treated with indicated concentrations of 9i for 12 h; (B) The levels of Hippo related proteins in different hours after the treatment with 450 nM of 9i; (C) Level of YAP in the cytoplasm and nuclear, cells were treated for 12 h with 450 nM of 9i; (D) Levels of Bcl-2 and c-Myc in MGC-803 cells after the treatment with 450 nM of 9i for different hours; (E) mRNA levels of Bcl-2 and c-My in MGC-803 cells after the treatment with 450 nM of 9i 12 h. Data were presented as mean ± SD.
2 gastric cancer cells were seeded in dishes and treated with 9i or DMSO. After 48 h, MGC-803 and SGC-7901 cells were collected and then lysed. The denatured lysates of each groups were electrophoretic separated in SDS-PAGE. Proteins were then transferred onto PVDF membranes from gels. After blocking for 2 h, membranes were incubated with primary antibodies conjugation. Then, the membranes were washed and incubated with 2nd antibodies. At last, specific proteins were detected.
(In western blotting, separated proteins are transferred to a membrane and probed.)

Data set [7] has as its system P38, ERK, AKT, mTOR and Wnt pathways. The data set can be described thus: Activity on P38, ERK, AKT, mTOR and Wnt pathways in cells. The format is cell-based. Particulars: 20, 40 and 60 nM, 48 hours. The text has this:
In this work, compound 9i was design and synthesized by SAR study of our reported tertiary amide derivatives compound 1 and compound 2. Therefore, we tested the influence of compound 9i on tubulin polymerization and AKT/mTOR and ERK […]
influence on tubulin polymerization and P38, ERK, AKT, mTOR and Wnt pathways . […]
pathway. Therefore, we here reported N-sulfonamide-quinazoline derivatives as novel anti-gastric cancer agents via activating the Hippo signaling pathway in vitro and in […]
Supporting Figure S1. A. Activity of compound 9i on tubulin polymerization . Tubulin polymerization extracellular, concentrations of Paclitaxel, Colchicine and 9i were 3 μmol/L; Activity of compound 9i on P38, ERK, AKT, mTOR and Wnt pathways, cells were incubated with […]
(1 picture or pasted object on this page, not shown here)

Regarding `COc1ccc(S(=O)(=O)N(Cc2nc(C)c3ccccc3n2)c2cc(OC)c(OC)c(OC)c2)cc1` [Compound 9i, 4-Methoxy-N-((4-methylquinazolin-2-yl)methyl)-N-(3,4,5-trimethoxyphenyl) benzene-sulfonamide], the IC50 was 26200 nM in data set [1]; 376 nM in data set [2]; 708 nM in data set [3] (Homo sapiens, HCT-116, 48 h); 700 ± 40 nM in data set [3]. For the same molecule, in data set [4] (blood samples after execution), the “blood biochemical indexes (ALT, AST, T-BIL, UA, CRE, BUN) versus vehicle control group” value is on record as “no significant difference”. Further, the toxicity in vivo entry in data set [4] (body weight, blood biochemistry, H&E staining of organs) was “did not show obvious toxicity in vivo”. For the same molecule, the “bodyweight of mice versus vehicle control group” value in data set [4] (recorded every 3 days during 21 days treatment) was “did not show a significant difference”. Also, the “tumour growth (tumour volume)” value in data set [5] (daily intraperitoneal injection for 21 days) is “inhibited tumour growth in vivo”. In data set [5] (daily intraperitoneal injection for 21 days, versus vehicle group), the “tumour weight inhibition rate” value is “over 60%”. In addition, in data set [5] (tumour tissues after 21 days treatment), the “expression of YAP, Bcl-2 and c-Myc in tumour tissues” value is recorded as “significantly down-regulated”. Also, the “MST1 and SAV levels” value in data set [6] (MGC-803 and SGC-7901 cells) was “did not show an obvious change”. Besides, the “level of TEAD” value in data set [6] (MGC-803 and SGC-7901 cells) is recorded as “not changed”. Further, the “level of YAP” value in data set [6] (MGC-803 and SGC-7901 cells) is reported as “reduced level of YAP”. Further, the p-LATS level result in data set [6] (MGC-803 and SGC-7901 cells) is recorded as “up-regulated”. In addition, the “phosphorylation of YAP” value in data set [6] (MGC-803 and SGC-7901 cells, dose and time-dependent) is on record as “up-regulated the phosphorylation of YAP”. In addition, in data set [6] (two gastric cancer cells, mRNA and protein), the “Bcl-2 and c-Myc expression” value was “down-regulated at mRNA and protein levels”. Also, in data set [7], the “influence on P38, ERK, AKT, mTOR and Wnt pathways” value is given as “no strong influence”.

Broadly, the IC50 is the concentration needed to halve the response being measured.
